From patent US20100311170A1, “METHOD FOR REPROGRAMMING DIFFERENTIATED CELLS” (priority 2008, published 2010)

How the values were obtained:
Assay type in all cases: cell-based, mouse
[1] = tested on: ES-neo×NS-Oct4-puro cells; assay: PEG fusion of ES-neo cells with NS-Oct4-puro cells, hybrids treated after fusion; AP-positive puromycin-resistant reprogrammed colonies counted; settings: for reprogrammed clones with respect to the control (fold): 24 h culture after fusion, Wnt3a 100 ng/ml or BIO 1 μM; for number of reprogrammed clones after prolonged treatment: 48 h of treatment after fusion
Method: (§1) ES×NS and ES×MEF PEG fusions: 1.2×10^6 NS cells or MEFs were plated into T25 flasks. After 2 h, 1.2×10^6 ES cells were plated onto them, allowing them to attach to the NS cells or MEFs.

ES-neo×MEF-hygro = assay: PEG fusion of ES-neo cells with MEF-hygro cells, hybrids treated after fusion; reprogrammed AP-positive clones counted
Method: as §1

[2] = tested on: ES-hygro×thymocyte-neo cells; assay: ES×thymocyte fusion, hybrids cultured in BIO; reprogrammed clones counted
Method: ES×thymocyte fusions: the cells were fused in suspensions as previously described (Silva et al., 2006). After fusion, they were packed by centrifugation and the supernatant was discarded. The pelleted cells were resuspended in complete ES-cell medium and plated. The selection was carried out after 24 h, using hygromycin plus neomycin.

[3] = tested on: ES cells fused with NS-Oct4-puro cells; assay: Pretreated-ES×NS PEG fusions (ES cells pre-cultured with Wnt3a or BIO, then fused with non-treated NS-Oct4-puro cells); settings: for enhancement of NS reprogramming: ES cells cultured for 12, 48 and 72 h; for total reprogrammed clones / increase in the numbers of reprogrammed clones: ES cells pre-cultured for 24 h and 96 h; for increase in the numbers of reprogrammed clones: Wnt3a 100 ng/ml or BIO 1 μM
Method: On the last day, the cells were trypsinized, counted, and plated on NS cells for fusions or harvested for RNA and protein analyses. PEG fusions and drug selection were performed as previously described.

NS-Oct4-puro cells = assay: BIO-pretreated NS-Oct4-puro cells fused with non-treated ES-neo cells; settings: NS cells pretreated with BIO before fusion
Method: FIG. 12. […] (A) Plates containing fused hybrid colonies between BIO-treated NS-Oct4-puro cells and non-treated ES-neo cells. The clones were stained for the expression of AP and counted. The fold-change increases in the reprogrammed colonies are shown in the graph (mean±s.e.m.; n=3). (B) Example of a reprogrammed colony isolated from ES-neo cells fused with NS-Oct4-puro cells pretreated with BIO for 24 h. (C) Western blotting of total protein extracts of the NS-Oct4-puro cells at the indicated treatment times.
ES×NS and ES×MEF PEG fusions: 1.2×10^6 NS cells or MEFs were plated into T25 flasks. After 2 h, 1.2×10^6 ES cells were plated onto them, allowing them to attach to the NS cells or MEFs. After a further 2 h, 1 ml 50% (w/v) PEG 1450 (Sigma; pre-warmed to 37° C.) was added for 2 min, and then the cells were washed three times with serum-free DMEM. […] After 12 h, the cells were trypsinized and plated into gelatin+laminin-treated p100 dishes. For the ES×NS selection, puromycin was added after 72 h, while for the ES×MEF selection, hygromycin plus neomycin were added after 24 h.

[4] = tested on: ES-neo cells and ES×NS reprogrammed hybrids; assay: Clonogenicity and viability of ES cells and hybrids plated in BIO-containing medium; settings: scaled numbers plated
Method: FIG. 4. […] ES-neo cells (A) and ES×NS reprogrammed hybrids (B) (treated or not for 24 h with BIO) were plated at different densities. After 10 days, the plates were stained for AP and counted. The fold-changes in colonies are shown in the graphs (mean±s.e.m.; n=3).

[5] = tested on: Topflash reporter gene (β-catenin binding sites fused to luciferase); assay: Topflash luciferase reporter assay in ES cells; settings: 24 h
Method: ES cells were co-transfected by nucleofection (Amaxa) with the Topflash reporter construct driving firefly luciferase cDNA and a pRL-CMV driving constitutive expression of renilla cDNA for normalization. Treatments with Wnt3a and BIO were carried out the day after the nucleofection and cells were lysed with 1× passive reporter lysis buffer. Firefly and renilla reporter activities were measured using a 96-well-based luminometer and were detected as per manufacturer instructions (Promega Dual-Light system),

[6] = tested on: ES-neo cells with ES-Hygro cells; assay: PEG fusion of BIO-pretreated ES-neo cells with ES-Hygro cells (fusion control)
Method: FIG. 6. […] Plates containing fused hybrid colonies between ES-neo cells (treated or not for 24 h with BIO) and non-treated ES-hygro cells. The clones were stained for the expression of AP and counted. The fold-change of colonies are shown in the graphs (mean±s.e.m.; n=3). (B) Quantification (as fold-increases in the number of colonies) of hybrid colonies from PEG fusions of ES-neo cells with NS-Oct4-puro cells. Hybrids from two fusion experiments (2,000,000 cells/flask) were allowed to recover for 3 h after PEG fusion. They were then pooled and divided in 5 plates ([…]) in such a way that the cells were not touching each other. Two hours after the plating, the cells were treated with BIO, as indicated. The fold-change increases in the reprogrammed colonies are shown in the graphs (mean±s.e.m.; n=3).

[7] = tested on: ES-GFP cells with NS-Oct4-puro cells; assay: FACS analysis of the primary fusion products (ES-GFP × NS-Oct4-puro, 3 h after PEG fusion)
Method: ES-GFP cells were treated or not with BIO for 12, 24, 48, 72 and 96 h and subsequently PEG fused with NS-Oct4-puro cells. Hybrids were trypsinized, counted, resuspended in PBS (1×10^6 cells per point) and centrifuged. Then, 0.1 ml of 4% paraformaldehyde solution was added to the cells and they were incubated for 15 min. Blocking solution (0.1% Triton, 10% goat-serum, in PBS) was subsequently added and the cells incubated for 1 h. The cells were then labelled with α-nestin (1:100) (ab6142, Abcan) overnight. The day after, the cells were incubated with the secondary antibody conjugated with PE fluorocrome (1:50) (ab7002 Abcam) for 1 h. FACS analyses were performed using a BDBiosciences FACSAria cytometer.

NS cells = assay: Toxicity of BIO to NS cells (data not shown); settings: BIO concentrations higher than 1 μM
β-catenin = assay: Western blotting and immunofluorescence of β-catenin in treated ES cells
Method: ES cells were washed twice with phosphate-buffered saline (PBS), fixed with 4% paraformaldehyde and blocked in 5% goat serum for 40 min. […] The cells were then washed and mounted on slides with a few drops of Vectashield with DAPI (Vector Laboratories).

[8] = tested on: Nanog, Oct4, Rex1, Fgf4, c-Myc; assay: Semiquantitative and quantitative RT-PCR of ES-cell genes and β-catenin targets in pretreated ES cells; settings: for expression of pluripotent genes Nanog, Oct4, Rex1 and Fgf4: all treatment times; for c-Myc expression: under Wnt3a and BIO treatments
Method: For RT-PCR, the total RNA was extracted from ES cells and from embryoid bodies (200 embryoid bodies for each clone and for each differentiation time point) using the RNeasy Kit (Qiagen), and the cDNA was generated using superscript III (Invitrogen). The primers used were: […]
RNA isolation and reverse transcription were carried out as described for semiquantitative RT-PCR. The template for each PCR reaction was the cDNA obtained from 16 ng total RNA in a 25-μl reaction volume. Platinum SYBR green qPCix-UDG (Invitrogen) was used with an ABprism 7000 real-time PCR machine, according to the manufacturer recommendations. The primers used were: […]

[9] = tested on: EF4 cells and NS-Oct4-(LV-Hygro) cells; assay: PEG fusions between BIO-pretreated EF4 (Nanog over-expressing) cells and NS-Oct4-(LV-Hygro) cells; settings: BIO-pretreated EF4 cells
Method: NS-Oct4-(LV-Hygro) cells were derived from NS-Oct4-puro and transduced with the letiviral pHRcPPT-PGK-Hygromycin vector. EF4 cells carrying the CAG promoter driving Nanog and Puromycin resistance genes were a gift of Dr. I. Chambers. Cells were cultured as previously described (Chambers et al., 2003).
NS×ES-Hygro or NS-HygroxEF4 cells PEG fusions were done as previously described. For the NS×ES-Hygro and NS×EF4 selection, Puromycin plus Hygromycin was added after 72 h.

[10] = cultured in BIO for 12, 24 and 48 h, double-drug selected
[11] = increased treatment time with BIO
[12] = increasing BIO concentrations, 24 h

In the case of `O=C1Nc2cc(Br)ccc2/C1=C1/Nc2ccccc2/C1=N\O` [BIO, 6-bromoindirubin-3′-oxime], the “reprogrammed clones with respect to the control (fold)” value [1] is reported as “up to 70 fold”, the “number of reprogrammed clones after prolonged treatment” value [1] is reported as “decreased” and the “time of BIO treatment giving the peak of reprogrammed clones” value ([1]; hybrids re-plated 3 h after fusion at a dilution without cell contact, BIO for 12, 24, 48 and 72 h) is reported as 24 h. The “increase in numbers of reprogrammed selected clones vs fusions in the absence of BIO” value (ES-neo×MEF-hygro; [10]) was “up to 20 fold”, the “reprogramming efficiency with increased treatment time” value (ES-neo×MEF-hygro; [11]) was “lower” and the “increase in numbers of reprogrammed selected clones vs fusions in the absence of BIO” value [2, 10] was at most 9 fold. The “reprogramming efficiency with increased treatment time” value [2, 11] was “lower”, the “enhancement of NS reprogramming” value [3] was “poor enhancement” and the total reprogrammed clones [3] was “about 2,000 total clones”. The “increase in the numbers of reprogrammed clones” value [3] was at most 80 fold, the “number of ES-cell-like, AP-positive reprogrammed clones” value (NS-Oct4-puro cells) was “only a slight increase” and the “clonogenicity and viability in absence vs presence of BIO” value [4] was “equal”. The “activation of the Topflash reporter gene” value ([5]; 1 μM BIO) was “relatively limited activation”, the “Topflash activation with increasing concentration” value ([5]; increasing BIO concentrations) was “increased Topflash activation” and the “number of clones after ES×ES fusion (PEG-mediated fusion)” value [6] was “only a slight increase”. For the same molecule, the “number of hybrid clones, ES cells pre-treated or not with BIO before fusion” value [7] was “same number of hybrid clones”, the “toxicity to NS cells” value (NS cells) was “slightly toxic” and the “inhibition of GSK-3 in ES cells” value (β-catenin; 1 μM BIO) was “not fully inhibited”. For the same molecule, the “levels of phospho-β-catenin with increasing concentration” value (β-catenin; [12]) was “decreased levels of phospho-β-catenin”, the “β-catenin nuclear localization with increasing concentration” value (β-catenin; [12]) was “increased β-catenin nuclear localization” and the “expression of pluripotent genes Nanog, Oct4, Rex1 and Fgf4” value [8] was “same levels”. For the same molecule, the c-Myc expression [8] was “constantly expressed” and the “reprogramming of NS cells with Nanog over-expression plus Wnt pathway activation” value [9] was “cooperate to enhance reprogramming”.

B1: Wnt3a: Wnt protein isoform (R&D), Wnt/β-catenin pathway activator (protein, UniProt P56704 19-352, looked up)
Protein Wnt-3a: SYPIWWSLAVGPQYSSLGSQPILCASIPGLVPKQLRFCRNYVEIMPSVAEGIKIGIQECQHQFRGRRWNCTTVHDSLAIFGPVLDKATRESAFVHAIASAGVAFAVTRSCAEGTAAICGCSSRHQGSPGKGWKWGGCSEDIEFGGMVSREFADARENRPDARSAMNRHNNEAGRQAIASHMHLKCKCHGLSGSCEVKTCWWSQPDFRAIGDFLKDKYDSASEMVVEKHRESRGWVETLRPRYTYFKVPTERDLVYYEASPNFCEPNPETGSFGTRDRTCNVSSHGIDGCDLLCCGRGHNARAERRREKCRCVFHWCCYVSCQECTRVYDVHTCK
In the case of B1, the “reprogrammed clones with respect to the control (fold)” value [1] is reported as “up to 20 fold”, the “number of reprogrammed clones after prolonged treatment” value [1] is reported as “decreased” and the “increase in number of AP-positive reprogrammed clones” value (ES-neo×MEF-hygro; hybrids cultured with Wnt3a for 48 h) is reported as “up to 5 fold”. The “enhancement of NS reprogramming” value [3] was “poor enhancement”, the total reprogrammed clones [3] was “about 600 total clones” and the “increase in the numbers of reprogrammed clones” value [3] was “Up to 15 fold”. For the same molecule, the “expression of pluripotent genes Nanog, Oct4, Rex1 and Fgf4” value [8] was “same levels” and the c-Myc expression [8] was “constantly expressed”.
